Patent US8592407B2, “Pyrrolo[2,1-c][1,4] benzodiazepine derivatives with dithiocarbamate side chains and process for the preparation thereof” (Council of Scientific & Industrial Research, priority 2008, dated 2013)

Columns and labels:
[1] = system: sixty human tumour cell lines; assay: cells; conditions: read-out: GI50 value against sixty cell lines in nine cell panels
Description: For each compound, dose response curves for each cell line were measured at a minimum of five concentrations at 10 fold dilutions. A protocol of 48 h continuous drug exposure was used and a sulforhodamine B (SRB) protein assay was used to estimate cell viability or growth. The concentration causing 50% cell growth inhibition (G150), total cell growth inhibition (TGI 0% growth) and 50% cell death (LC50, −50% growth) compared with the control was calculated.

[2] = system: Lung A-549; conditions: human
[3] = system: Colon HCT-15; conditions: human
[4] = system: Neuroblastoma IMR-32; conditions: human
[5] = system: Liver HEP-2; conditions: human

SMILES	GI50 [1] [nM]	Preliminary in vitro cytotoxicity data [2] [%]	Preliminary in vitro cytotoxicity data [3] [%]	Preliminary in vitro cytotoxicity data [4]	Preliminary in vitro cytotoxicity data [5] [%]
COc1cc2c(cc1OCCCN1CCN(C(=S)SCCC(C#N)(c3ccccc3)c3ccccc3)CC1)N=C[C@@H]1CCCN1C2=O [Compound 12b, 3-cyano-3,3-diphenylpropyl 4-(3-[(11aS)-7-(methyloxy)-5-oxo-2,3,5,11a-tetrahydro-1H-benzo[e]pyrrolo[1,2-a][1,4]diazepin-8-yl]oxypropyl)hexahydro-1-pyrazinecarbodithioate]	< 2690	–	–	–	–
COc1cc2c(cc1OCCCCN1CCN(C(=S)SCCC(C#N)(c3ccccc3)c3ccccc3)CC1)N=C[C@@H]1CCCN1C2=O [Compound 12c, 3-cyano-3,3-diphenylpropyl 4-(4-[(11aS)-7-(methyloxy)-5-oxo-2,3,5,11a-tetrahydro-1H-benzo[e]pyrrolo[1,2-a][1,4]diazepin-8-yl]oxybutyl)hexahydro-1-pyrazinecarbodithioate]	–	31	75	88	69
